Laboratory results reported in paper PMC6805867, “Amphiphilic Triazine Polymer Derivatives as Antibacterial And Anti-atopic Agents in Mice Model” (Scientific Reports, 2019).

Legend:
[1] = tested on: Bacillus subtilis (KCTC 3068); test: Antimicrobial activity, broth microdilution MIC; assay type: cell-based; settings: 2 × 10^6 CFU/mL in 1% peptone, 37 °C, 18–22 h, 100% inhibition of growth, performed three times
Method: (§1) The bacterial strains employed in the experiment were Escherichia coli (KCTC 1682), Pseudomonas aeruginosa (KCTC 1637), Bacillus subtilis (KCTC 3068), Staphylococcus aureus (KCTC 1621), three methicillin-resistant Staphylococcus aureus (CCARM 3089, 3090 and 3095), two multidrug-resistant Pseudomonas aeruginosa (CCARM 2095 and 2109) and vancomycin-resistant Enterococcus faecium (ATCC 51559). The antimicrobial activities of polymers were determined by the broth microdilution method, and the procedures were used as previously reported. Briefly, bacteria grown to mid-logarithmic phase in LB broth were diluted to 2 × 10^6 CFU/mL in 1% peptone and added to serial two-fold dilutions of different polymers ranging from 1 to 64 μg/mL. The plates were incubated in a shaking incubator at 37 °C for 18–22 h. The minimum inhibitory concentration (MIC) was determined by confirming the absence of bacterial growth both visually and spectrophotometrically by OD600 readings taken by a microplate ELISA reader (Molecular Devices, Sunnyvale, CA, USA). All measurements were performed three times.

[2] = tested on: Escherichia coli (KCTC 1682); test: Antimicrobial activity, broth microdilution MIC; assay type: cell-based; settings: 2 × 10^6 CFU/mL in 1% peptone, 37 °C, 18–22 h, 100% inhibition of growth, performed three times
Method: as §1

[3] = tested on: Pseudomonas aeruginosa (KCTC 1637); test: Antimicrobial activity, broth microdilution MIC; assay type: cell-based; settings: 2 × 10^6 CFU/mL in 1% peptone, 37 °C, 18–22 h, 100% inhibition of growth, performed three times
Method: as §1

[4] = tested on: Staphylococcus aureus (KCTC 1621); test: Antimicrobial activity, broth microdilution MIC; assay type: cell-based; settings: 2 × 10^6 CFU/mL in 1% peptone, 37 °C, 18–22 h, 100% inhibition of growth, performed three times
Method: as §1

[5] = tested on: Multidrug-resistant Pseudomonas aeruginosa (MDRPA) (CCARM 2095); test: Chequerboard assay (synergy with clinically used antibiotics); assay type: cell-based; settings: for FICB: [B]/MICB; for FICI (fractional inhibitory concentration index): MDRPA CCARM 2095; for [B] (MIC of triazine polymer in combination): unit not given
Method: Briefly, 2-fold serial dilutions of each antibiotic and each polymer were prepared and added in a 1:1 volume ratio to the wells of a 96-well plate. An equal volume of bacterial solution (100 μL) at ∼10^6 CFU/mL was then seeded into each well. The plates were incubated in a shaking incubator at 37 °C and 200 rpm and read after 22 h. Bacterial growth was assessed visually or spectrophotometrically via OD600 readings taken by a microplate ELISA reader (Molecular Devices, Sunnyvale, CA, USA). The fractional inhibitory concentration index (FICI) for each drug combination was calculated using the following equation: FICI = FICA + FICB = [A]/MICA + [B]/MICB, where MICA and MICB are the MIC of antibiotic and triazine based monomer (TZP3 or TZP5), respectively, while [A] and [B] are the MIC of antibiotic and triazine based monomer (TZP3 or TZP5) in combination, respectively. FICI of ≤ 0.5 was interpreted as synergy, 0.5 < FICI ≤ 1.0 as additive, 1.0 < FICI ≤ 4.0 as indifferent, and a FICI > 4.0 as antagonism.

[6] = tested on: inflammatory cytokine expression in dorsal skin tissue; test: DNCB-induced AD model, cytokine mRNA expression by real-time PCR; assay type: in vivo, BALB/c mice; settings: AD-like skin lesions, n = 8
Method: As described in our previous article, the 7-week-old female BALB/c mice were divided into seven groups (n = 8 per group): Control (Con) group, TZP3 200 μg/mL (TZP3) group, and TZP5 200 μg/mL (TZP5) group, DNCB-sensitized only (AD) group, DNCB-sensitized + TZP3 200 μg/mL (AD + TZP3) group, DNCB-sensitized + TZP5 200 μg/mL (AD + TZP5) group, DNCB-sensitized + Dermatop (Sanofi, Korea) 0.25% (AD + Dermatop) group. Dermatop was used as a positive control treatment. For the first induction of AD in the BALB/c mice, the backs of the mice were shaved and challenged with 200 μL of 1% 2,4-dinitrochlorobenzene(DNCB) in acetone/olive oil (3:1) one time (day−4). After 4 days from the induction, 0.5% DNCB was painted onto the backs of the mice every two days (day 2, 4, 6, 8, 10, 12, 14, 16 and 18). Concentrations of 200 μg/mL TZP3 or TZP5 in 20 μL of PBS were applied to the dorsal skin once daily for 18 days.
For the reverse transcription (RT) - polymerase chain reaction (PCR), the total cellular RNA was isolated from the dorsal skin tissue of each treatment group using TRIzol according to the manufacturer’s protocol. The first-strand complementary DNA (cDNA) was synthesized using Superscript II reverse transcriptase (Invitrogen). The conditions for RT-PCR were similar ones that have been previously described in related studies. Quantitative real-time PCR was carried out using a Thermal Cycler Dice TP850 (Takarabio Inc., Shiga, Japan) according to the manufacturer’s protocol. Briefly, 2 μL of cDNA (100 ng), 1 μL of sense and antisense primer solution (0.4 µM), 12.5 μL of SYBR Premix Ex Taq (Takarabio Inc.), and 9.5 μL of dH2O were mixed to obtain a final 25-μL reaction mixture in each reaction tube. The amplification conditions were as follows: 10 s at 95 °C, 40 cycles of 5 s at 95 °C and 30 s at 60 °C, 15 s at 95 °C, 30 s at 60 °C, and 15 s at 95 °C. The mRNA levels of the target genes relative to that of GAPDH were normalized as follows: relative mRNA expression = 2^-(ΔCt of target gene−ΔCt of GAPDH), where Ct is the threshold cycle value. In each sample, the expression level of the analyzed gene was normalized to that of GAPDH and presented as a relative mRNA level.

[7] = in combination with chloramphenicol
[8] = in combination with ciprofloxacin
[9] = combination with chloramphenicol

NCCCN(CCCN)c1nc(Cl)nc(NCCNc2nc(NCCNc3nc(N)nc(NCCC(c4ccccc4)c4ccccc4)n3)nc(N(CCCN)CCCN)n2)n1 [TZP5]
MIC Bacillus subtilis (KCTC 3068) [1]: 2 [1.5] μg/mL | MIC Escherichia coli (KCTC 1682) [2]: 4 [3] μg/mL | MIC Pseudomonas aeruginosa (KCTC 1637) [3]: 4 [3] μg/mL | MIC Staphylococcus aureus (KCTC 1621) [4]: 4 [3] μg/mL | FICB [5, 7]: 0.25 | FICB [5, 8]: 0.25 | FICB ([5]; in combination with oxacillin): 1.0 | Interaction [5, 9]: synergy (FICI of ≤ 0.5 was interpreted as synergy) | FICI (fractional inhibitory concentration index) [5, 9]: 0.281 | Interaction ([5]; combination with ciprofloxacin): synergy (FICI of ≤ 0.5 was interpreted as synergy) | FICI (fractional inhibitory concentration index) ([5]; combination with ciprofloxacin): 0.5 | Interaction ([5]; combination with oxacillin): indifferent (1.0 < FICI ≤ 4.0 as indifferent) | FICI (fractional inhibitory concentration index) ([5]; combination with oxacillin): 2.0 | [B] (MIC of triazine polymer in combination) [5, 7]: 4 | [B] (MIC of triazine polymer in combination) [5, 8]: 4 | [B] (MIC of triazine polymer in combination) ([5]; in combination with oxacillin): 16 | IL-4 suppression (mRNA expression) [6]: around 35% | inhibition of IFN-γ mRNA expression [6]: around 60% | inhibition of IL-1β mRNA expression [6]: > 75% | inhibition of IL-13 mRNA expression [6]: > 75% | inhibition of IL-17 mRNA expression [6]: more than 85% | inhibition of TNF-α mRNA expression [6]: ~65% | suppression of IL-6 mRNA expression [6]: ~50% | suppression of IL-10 mRNA expression [6]: almost similar potency with the dermatop

NCCCN(CCCN)c1nc(N)nc(NCCNc2nc(Cl)nc(N(Cc3ccccc3)Cc3ccccc3)n2)n1 [TZP3]
MIC Bacillus subtilis (KCTC 3068) [1]: 2 [3.4] μg/mL | MIC Escherichia coli (KCTC 1682) [2]: 4 [6.8] μg/mL | MIC Pseudomonas aeruginosa (KCTC 1637) [3]: 8 [13.5] μg/mL | MIC Staphylococcus aureus (KCTC 1621) [4]: 4 [6.8] μg/mL | FICB [5, 7]: 0.25 | FICB [5, 8]: 0.5 | FICB ([5]; in combination with oxacillin): 1.0 | Interaction [5, 9]: synergy (FICI of ≤ 0.5 was interpreted as synergy) | FICI (fractional inhibitory concentration index) [5, 9]: 0.281 | Interaction ([5]; combination with ciprofloxacin): additive (0.5 < FICI ≤ 1.0 as additive) | FICI (fractional inhibitory concentration index) ([5]; combination with ciprofloxacin): 0.75 | Interaction ([5]; combination with oxacillin): indifferent (1.0 < FICI ≤ 4.0 as indifferent) | FICI (fractional inhibitory concentration index) ([5]; combination with oxacillin): 2.0 | [B] (MIC of triazine polymer in combination) [5, 7]: 4 | [B] (MIC of triazine polymer in combination) [5, 8]: 8 | [B] (MIC of triazine polymer in combination) ([5]; in combination with oxacillin): 16 | IL-4 suppression (mRNA expression) [6]: around 35% | inhibition of IFN-γ mRNA expression [6]: around 60% | inhibition of IL-1β mRNA expression [6]: more than 70% | inhibition of IL-13 mRNA expression [6]: more than 70% | inhibition of IL-17 mRNA expression [6]: 60% | inhibition of TNF-α mRNA expression [6]: approximately 55% | suppression of IL-6 mRNA expression [6]: around 60% | suppression of IL-10 mRNA expression [6]: around 35%
